Reference: US11311548B2, “Cancer therapy” (Aslan Pharmaceuticals Pte. Ltd., priority 2017, dated 2022)
Entries after “also recorded” stand apart in the source; their conditions may differ.

Legend:
NB-4 = assay: Differentiation of AML cell line (CD11b/CD14 flow cytometry, NBT assay, Wright-Giemsa staining); format: cell-based; settings: NB-4, FAB M3
Method: (§1) The AML cell lines were dosed with the varying concentrations of ASLAN003 and differentiation of the cell lines were observed via upregulation of CD11b and CD14 on the cell surface via flow cytometry. Differentiation was also determined using the NBT assay and from morphological observations from Wright-Giemsa staining.

KG-1 = assay: as above; format: cell-based; settings: KG-1, FAB M0/M1
Method: as §1

HL-60 = assay: as above; format: cell-based; settings: HL-60, FAB M2
Method: as §1

MOLM-14 = assay: as above; format: cell-based; settings: MOLM-14, FAB M5
Method: as §1

THP-1 = assay: as above; format: cell-based; settings: THP-1, FAB M5
Method: as §1

[1] = tested on: chronic myeloid leukaemia (CML) cell lines; assay: CellTiter-Glo Luminescent Cell Viability Assay, CML cell lines; format: cell-based, human; settings: CML cell lines (K562, KCL-22), increasing dose, 48 hours
Method: (§2) Multiple myeloma (MM) or chronic myeloid leukaemia (CML) cell lines were seeded at 20,000 cells in 100 μL of medium in 96-well format and treated with increasing dose of ASLAN003 for 48 hours. DMSO was used as control. The CellTiter-Glo® Luminescent Cell Viability Assay, which is a homogeneous method of determining the number of viable cells in culture based on quantitation of the ATP present, i.e. an indicator of metabolically active cells was then performed on the cell lines.

AD345 primary MDS cells = assay: FACs analysis of primary MDS cells; format: cell-based; settings: 96 hours
Method: (§3) AD345 primary MDS cells (refractory cytopenia with multilineage dysplasia, normal karyotype) and AD537 primary MDS bone marrow cells (refractory cytopenia with multilineage dysplasia, karyotype 46, XY, 43.1% myeloid) were treated with ASLAN003 (4000 nM) or DMSO control for 96 hours. A FACs analysis was then performed using Pacific blue dye. The AD537 cells were also stained with Wright-Giemsa and NBT reduction.

[2] = tested on: AD537 primary MDS bone marrow cells; assay: FACs analysis of primary MDS bone marrow cells; format: cell-based; settings: 96 hours
Method: as §3

MOLM-14 xenograft = MOLM-14 xenograft model in NSG mice; format: in vivo
Method: NSG mice were inoculated with MOLM-14 cells via tail vein injection. Treatment by oral gavage with either ASLAN003 (50 mg/kg QD) or vehicle control was started 3 days past inoculation. 11 mice were treated in the ASLAN003 group and 12 mice were treated in the vehicle control group. The following data is collected at the end of the experiment: […]

[3] = tested on: Multiple myeloma (MM) cell lines; assay: CellTiter-Glo Luminescent Cell Viability Assay, MM cell lines; format: cell-based, human; settings: increasing dose, 48 hours
Method: as §2

## COc1cccc(-c2cc(F)c(Nc3ncccc3C(=O)O)c(F)c2)c1 [ASLAN003, 2-(3,5-difluoro-3′-methoxybiphenyl-4-ylamino) nicotinic acid]
NB-4
  ASLAN003 Differentiation: did not induce observed differentiation effects; also recorded: Negative
KG-1
  ASLAN003 Differentiation: myeloid differentiation effects of ASLAN003 were observed; also recorded: Positive
HL-60
  ASLAN003 Differentiation: did not induce observed differentiation effects; also recorded: Negative
MOLM-14
  ASLAN003 Differentiation: myeloid differentiation effects of ASLAN003 were observed; also recorded: Positive
THP-1
  ASLAN003 Differentiation: myeloid differentiation effects of ASLAN003 were observed; also recorded: Positive
[1]
  Cell viability: has the ability to reduce the viability
AD345 primary MDS cells; AD345, 4 μM
  increase in CD11b+CD14+ cells: about 11%
  increase in CD13+CD33+ cells: about 12.3%
AD345 primary MDS cells; AD345, 4000 nM, DMSO control 93%, read-out: % viable cells
  viability at 4 µM: 86.5%
[2]; AD537, 4 μM
  increase in CD13+CD33+ cells: about 12.3%
  increase in CD14+ cells: about 20%
  increase of CD11b+ cells: ~30%
[2]; Bone marrow cell, AD537, 4000 nM, DMSO control 84.5%, read-out: % viable cells
  viability at 4 µM: 73%
MOLM-14 xenograft; 50 mg/kg QD oral gavage, vs vehicle
  Survival of MOLM-14 xenograft mice: significantly (p=0.031) prolonged survival
MOLM-14 xenograft; MOLM-14 xenograft NSG mice, 50 mg/kg QD oral gavage from 3 days past inoculation, vehicle group 24 days
  Median survival: 27 days
MOLM-14 xenograft; bone marrow, peripheral blood, spleen and liver, 50 mg/kg QD oral gavage, flow cytometry
  Leukaemic burden (percentage of CD45+ cells): significantly decreased leukaemic burden
MOLM-14 xenograft; bone marrow, 50 mg/kg QD oral gavage, flow cytometry
  Differentiation of leukaemic cells (hCD11b+ and hCD14+ cells): significantly induced differentiation
[3]
  Cell viability: has the ability to reduce the viability
